Source: EP1171440B1, “SUBSTITUTED-3-CYANO-[1.7],[1.5], AND [1.8]-NAPHTHYRIDINE INHIBITORS OF TYROSINE KINASES” (Wyeth Holdings Corporation, priority 1999, dated 2000)
≈ marks a conversion by molar mass, not a printed value. Like-named read-outs stand apart in the source and are kept apart here.

Columns and labels:
A2780DDP = experiment: Inhibition of Cancer Cell Growth as Measured by Cell Number (Sulforhodamine B); format: cell-based, Human; settings: 48 hours exposure
Experimental: (§1) After 48 hours exposure to test compounds, cells were fixed with trichloroacetic acid, and stained with Sulforhodamine B. After washing with trichloroacetic acid, bound dye was solubilized in 10 mM Tris base and optical density was determined using a plate reader. Under conditions of the assay the optical density is proportional to the number of cells in the well. […] The test procedure is described in details by Philip Skehan et. al, J.Natl. Canc. […] The Her2Neu cell line is a 3T3 line that has bbeen transfected with Her2 receptor kinase.

A2780S = experiment: as above; format: cell-based, Human; settings: 48 hours exposure
Experimental: as §1

A431 = experiment: as above; format: cell-based, Human; settings: 48 hours exposure
Experimental: as §1

LOX = experiment: as above; format: cell-based, Human; settings: 48 hours exposure
Experimental: as §1

MDA435 = experiment: as above; format: cell-based, Human; settings: 48 hours exposure
Experimental: as §1

SKBR3 = experiment: as above; format: cell-based, Human
Experimental: as §1

SW620 = experiment: as above; format: cell-based, Human
Experimental: as §1

[1] = target: T1, EGF-R Kinase (recombinant enzyme) (Homo sapiens, UniProt P00533); experiment: Inhibition of Epidermal Growth Factor Receptor Kinase (EGF-R) using recombinant enzyme, RR-SRC peptide phosphorylation with 33P-ATP; format: biochemical
T1 construct: containing the EGFR cDNA encoding amino acids 645 - 1186 preceded by Met-Ala-(His)6; made in house; host or cells: Sf9 insect cells infected with recombinant baculovirus vHcEGFR52
T1 sequence (P00533 669-1210): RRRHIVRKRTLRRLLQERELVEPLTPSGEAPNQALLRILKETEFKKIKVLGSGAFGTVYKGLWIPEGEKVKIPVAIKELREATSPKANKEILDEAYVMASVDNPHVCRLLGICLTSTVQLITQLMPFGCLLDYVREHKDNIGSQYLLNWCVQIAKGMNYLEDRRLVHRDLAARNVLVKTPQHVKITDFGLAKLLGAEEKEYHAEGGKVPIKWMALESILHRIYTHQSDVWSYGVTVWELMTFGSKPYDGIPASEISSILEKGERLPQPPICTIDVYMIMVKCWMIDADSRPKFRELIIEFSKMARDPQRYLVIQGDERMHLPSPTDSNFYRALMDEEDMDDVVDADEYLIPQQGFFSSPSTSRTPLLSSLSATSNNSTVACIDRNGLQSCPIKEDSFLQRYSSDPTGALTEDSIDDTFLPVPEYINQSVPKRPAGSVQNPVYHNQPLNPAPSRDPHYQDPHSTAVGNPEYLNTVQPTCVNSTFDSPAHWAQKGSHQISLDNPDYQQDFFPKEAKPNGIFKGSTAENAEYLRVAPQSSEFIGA
Experimental: Representative test compounds were evaluated for their ability to inhibit the phosphorylation of the tyrosine residue of a peptide substrate catalyzed by the enzyme epidermal growth factor receptor kinase. […] The enzyme used in this assay is the His-tagged cytoplasmic domain of EGFR. A recombinant baculovirus (vHcEGFR52) was constructed containing the EGFR cDNA encoding amino acids 645 - 1186 preceded by Met-Ala-(His)6 . Sf9 cells in 100 mm plates were infected at an moi of 10 pfu/cell and cells were harvested 48 h post infection. A cytoplasmic extract was prepared using 1% Triton X-100 and applied to Ni-NTA column. After washing the column with 20 mM imidazole, HcEGFR was eluted with 250 mM imidazole (in 50 mM Na2HPO4, pH 8.0, 300 mM NaCl). Fractions collected were dialyzed against 10 mM HEPES, pH 7.0, 50 mM NaCl, 10% glycerol, 1ug/mL antipain and leupeptin and 0.1 mM Pefabloc SC. The protein was frozen in dry ice/methanol and stored -70° C.
Test compounds were made into 10 mg/mL stock solutions in 100% dimethylsulfoxide (DMSO). Prior to experiment, stock solutions were diluted to 500 uM with 100% DMSO and then serially diluted to the desired concentration with HEPES buffer (30 mM HEPES pH 7.4).
For the enzyme reaction, 10 uL of each inhibitor (at various concentrations) were added to each well of a 96-well plate. To this was added 3 uL of enzyme (1:10 dilution in 10mM HEPES, pH 7.4 for final conc. of 1:120). This was allowed to sit for 10 min on ice and was followed by the addition of 5 ul peptide (80 uM final conc.), 10ul of 4X Buffer (Table A), 0.25 uL ^33P-ATP and 12 uL H2O. The reaction was allowed to run for 90 min at room temperature and was followed by spotting the entire volume on to precut P81 filter papers. The filter discs were washed 2X with 0.5% phosphoric acid and radioactivity was measured using a liquid scintillation counter. Table A
The IC50 is the concentration of test compound needed to reduce the total amount of phosphorylated substrate by 50%. The % inhibition of the test compound was determined for at least three different concentrations and the IC50 value was evaluated from the dose response curve. […] CPM(control) is in units of counts per minute and was a number expressing the amount of radiolabeled ATP (γ-^33P) incorporated into the RR-SRC peptide substrate by the enzyme after 90 minutes at room temperature in the absence of test compound as measured by liquid scintillation counting. The CPM values were corrected for the background counts produced by ATP in the absence of the enzymatic reaction. Where it was possible to determine an IC50 value, this is reported in TABLE 1 otherwise the % inhibition at 0.5 µM concentration of test compound is shown in TABLE 1.

[2] = target: Epithelial Cell Kinase (ECK) (Homo sapiens, UniProt P29317); experiment: Inhibition of Epithelial Cell Kinase (ECK), nonradioactive peptide phosphorylation plate assay; format: biochemical; settings: pH 7.2; multiple entries = tested multiple times
Epithelial Cell Kinase (ECK), sequence (P29317 24-976, species assumed): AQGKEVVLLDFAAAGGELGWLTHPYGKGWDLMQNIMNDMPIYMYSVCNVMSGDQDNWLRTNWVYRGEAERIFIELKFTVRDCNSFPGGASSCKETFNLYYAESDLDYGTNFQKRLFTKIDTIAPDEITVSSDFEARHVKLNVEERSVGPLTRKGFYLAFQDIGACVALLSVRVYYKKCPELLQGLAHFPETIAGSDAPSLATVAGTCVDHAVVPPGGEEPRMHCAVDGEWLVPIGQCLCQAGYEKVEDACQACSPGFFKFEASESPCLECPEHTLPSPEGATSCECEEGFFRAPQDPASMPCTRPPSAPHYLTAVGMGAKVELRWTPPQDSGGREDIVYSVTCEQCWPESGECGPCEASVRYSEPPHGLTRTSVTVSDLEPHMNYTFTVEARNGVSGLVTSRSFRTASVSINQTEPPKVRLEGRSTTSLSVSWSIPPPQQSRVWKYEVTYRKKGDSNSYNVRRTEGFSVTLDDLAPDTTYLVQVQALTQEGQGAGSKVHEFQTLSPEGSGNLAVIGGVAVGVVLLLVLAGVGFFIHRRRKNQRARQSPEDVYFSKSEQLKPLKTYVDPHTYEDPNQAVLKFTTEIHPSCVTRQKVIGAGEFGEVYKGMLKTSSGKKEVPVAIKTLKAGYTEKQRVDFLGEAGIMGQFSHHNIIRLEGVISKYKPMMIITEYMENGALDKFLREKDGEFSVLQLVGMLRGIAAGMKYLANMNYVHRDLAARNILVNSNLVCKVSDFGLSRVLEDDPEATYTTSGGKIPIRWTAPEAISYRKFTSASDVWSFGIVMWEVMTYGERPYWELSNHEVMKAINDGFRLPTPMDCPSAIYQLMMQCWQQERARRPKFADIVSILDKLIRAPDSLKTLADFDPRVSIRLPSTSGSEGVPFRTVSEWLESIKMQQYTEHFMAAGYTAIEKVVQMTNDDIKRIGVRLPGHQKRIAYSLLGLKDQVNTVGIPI
Experimental: In this standard pharmacological test procedure, a biotinylated peptide substrate is first immobilized on neutravidin-coated microtiter plates. The test drug, the Epithelial Cell Kinase (ECK), Mg^++, sodium vanadate (a protein tyrosine phosphatase inhibitor), and an appropriate buffer to maintain pH (7.2) are then added to the immobilized substrate-containing microtiter wells. ATP is then added to initiate phosphorylation. After incubation, the assay plates are washed with a suitable buffer leaving behind phosphorylated peptide which is exposed to horse radish peroxidase (HRP)-conjugated anti-phosphotyrosine monoclonal antibody. The antibody-treated plates are washed again and the HRP activity in individual wells is quantified as a reflection of degree of substrate phosphorylation. This nonradioactive format was used to identify inhibitors of ECK tyrosine kinase activity where the IC50 is the concentration of drug that inhibits substrate phosphorylation by 50%. Multiple entries for a given compound indication it was tested multiple times.

[3] = target: Mitogen Activated Protein Kinase (Mek-Erk) (Homo sapiens, UniProt P28482+Q02750); experiment: Mitogen Activated Protein Kinase (MAPK) coupled MEK 1 / ERK2 assay; format: biochemical; settings: separate entries = evaluated more than one time
Mitogen Activated Protein Kinase (Mek-Erk), sequence (P28482 2-360): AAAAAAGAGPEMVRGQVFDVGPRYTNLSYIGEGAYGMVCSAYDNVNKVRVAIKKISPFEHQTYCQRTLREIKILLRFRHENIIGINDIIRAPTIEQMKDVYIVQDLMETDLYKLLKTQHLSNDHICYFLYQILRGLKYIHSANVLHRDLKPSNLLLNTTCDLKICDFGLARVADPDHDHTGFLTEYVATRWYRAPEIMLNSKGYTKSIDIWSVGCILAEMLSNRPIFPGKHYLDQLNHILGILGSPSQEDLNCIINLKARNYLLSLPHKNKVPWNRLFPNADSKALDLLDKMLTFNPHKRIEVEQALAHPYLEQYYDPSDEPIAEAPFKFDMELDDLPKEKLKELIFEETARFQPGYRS
Mitogen Activated Protein Kinase (Mek-Erk), sequence (Q02750 whole entry): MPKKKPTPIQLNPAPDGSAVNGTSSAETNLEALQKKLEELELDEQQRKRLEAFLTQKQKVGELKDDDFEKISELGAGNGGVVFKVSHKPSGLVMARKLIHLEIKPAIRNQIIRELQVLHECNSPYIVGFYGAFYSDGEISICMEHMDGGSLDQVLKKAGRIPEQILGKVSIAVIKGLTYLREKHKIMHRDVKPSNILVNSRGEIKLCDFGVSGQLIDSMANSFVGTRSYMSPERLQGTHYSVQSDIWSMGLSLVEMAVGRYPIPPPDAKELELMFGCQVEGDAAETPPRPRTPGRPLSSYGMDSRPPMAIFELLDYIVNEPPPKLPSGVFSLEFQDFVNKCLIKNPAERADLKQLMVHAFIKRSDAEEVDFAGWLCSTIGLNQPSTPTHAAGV
Experimental: To evaluate inhibitors of the MAP (mitogen activated protein) kinase a two component coupled standard pharmacological test procedure, which measures phosphorylation of a serine/threonine residue in an appropriate sequence in the substrate in the presence and absence of a putative inhibitor, was used. Recombinant human MEK 1 (MAPKK) was first used to activate recombinant human ERK2 (MAPK) and the activated MAPK (ERK) was incubated with substrate (MBP peptide or MYC peptide) in the presence of ATP, Mg^+2 and radiolabeled ^33P ATP. The phosphorylated peptide was captured on a P 81 phosphocellulose filter (paper filter or embedded in microtiter plate) washed and counted by scintillation methods.
The peptide substrates used in the assay are MBP, peptide substrate ([…]), or synthetic Myc substrate, ([…]•5 TFA. The recombinant enzymes used were prepared as GST fusion proteins of human ERK 2 and human MEK 1. Inhibitor samples were prepared as 10X stocks in 10% DMSO and an appropriate aliquot was used to deliver either 10 ug/ml for a single point screening dose or 100, 10, 1, and 0.1 uM final concentration for a dose response curve. Final DMSO concentrations were less than or equal to 1%.
The reaction was run as follows in 50 mM Tris kinase buffer, pH 7.4 in a reaction volume of 50 ul. The appropriate volume of kinase buffer and inhibitor sample was added to the tube. Appropriate dilution of enzyme was delivered to give 2-5 ug recombinant MAPK (Erk ) per tube. The inhibitor was incubated with MAPK (Erk) for 30 min at 0 deg. C. Recombinant Mek (MAPKK) ( 0.5-2.5 ug) or fully activated Mek (0.05-0.1 units) was added to activate the Erk and incubated for 30 min at 30° C. Then substrate and gamma ^33P ATP was were added to give a final concentration of 0.5- 1 mM MBPP or 250-500 uM Myc; 0.2-0.5 uCi gamma ^33P ATP/tube; 50 µM ATP final concentration. Samples were incubated at 30°C for 30 minutes and the reaction was stopped by adding 25 µl of ice cold 10 %TCA. After samples were chilled on ice for 30 min, 20 µl of sample was transferred onto P 81 phosphocellulose filter paper or appropriate MTP with embedded P 81 filter. Filter papers or MTP were washed 2 times with a large volume of 1% acetic acid, then 2 times with water. The filters or MTP were briefly air dried before addition of scintillant and samples were counted in the appropriate scintillation counter set up for reading ^33P isotope. Samples included a positive control (activated enzyme plus substrate); a no enzyme control; a no substrate control; samples with different concentrations of putative inhibitor; and samples with reference inhibitors (other active compounds or non-specific inhibitors such as staurosporine or K252 B).
The raw data was captured as cpm. Sample replicates were averaged and corrected for background count. Mean cpm data was tabulated by group and % inhibition by a test compound was calculated as (corrected cpm control- corrected. cpm sample/control) X 100 = % inhibition. If several concentrations of inhibitor were tested, IC50 values (the concentration which gives 50% inhibition) were determined graphically from the dose response curve for % inhibition or by an appropriate computer program. The results obtained for representative compounds of this invention are listed in TABLE 3 where there may be separate entries for the same compound; this is an indication that the compound was evaluated more than one time.

3T3 = experiment: Inhibition of Cancer Cell Growth as Measured by Cell Number (Sulforhodamine B); format: cell-based; settings: 48 hours exposure
Experimental: (§2) Human tumor cell lines were plated in 96-well plates (250 µl/well, 1-6 x 10^4 cells/ml) in RPMI 1640 medium, containing 5% FBS (Fetal Bovine Serum). […] After 48 hours exposure to test compounds, cells were fixed with trichloroacetic acid, and stained with Sulforhodamine B. After washing with trichloroacetic acid, bound dye was solubilized in 10 mM Tris base and optical density was determined using a plate reader. Under conditions of the assay the optical density is proportional to the number of cells in the well. IC50s (concentrations causing 50% inhibition of cell growth) were determined from the growth inhibition plots. The test procedure is described in details by Philip Skehan et. al, J.Natl. Canc. Inst., 82, 1107-1112 (1990). […] Information about some of the cell lines used in these test procedures is available from the American […]: Cell Lines and Hybridomas, 1994 Reference Guide, 8th Edition. The Her2Neu cell line is a 3T3 line that has bbeen transfected with Her2 receptor kinase.

MCF7 = experiment: as above; format: cell-based; settings: Homo sapiens, 48 hours exposure
Experimental: as §2

[4] = recombinant His-tagged cytoplasmic domain of EGFR, RR-SRC peptide, 90 min at room temperature, read-out: IC50
[5] = 0.5 µM concentration of test compound, read-out: % Inhibition @ 0.5
[6] = Homo sapiens, A-431, 48 h, read-out: IC50
[7] = Homo sapiens, MDA435, 48 h, read-out: IC50
[8] = Homo sapiens, SK-BR-3, 48 hours exposure, read-out: IC50
[9] = Homo sapiens, SW-620, 48 hours exposure, read-out: IC50
[10] = Homo sapiens, 48 h, read-out: IC50

IC50 (A431; [6]) [µg/mL]	IC50 (SKBR3; [8]) [µg/mL]	IC50 (SW620; [9]) [µg/mL]	Compound	IC50 [1, 4] [nM]	IC50 [2] [nM]	IC50 [3] [nM]	further results
			1-[4-(3-Bromo-phenylamino)-3-cyano-[1.7]naphthyridin-6-yl]-4-dimethylamino- pyridinium fluoride [Example 65]				IC50 (A2780DDP): 52 µg/mL; IC50 (A2780S): 31 µg/mL; IC50 (A431): 59 µg/mL; IC50 (LOX): 56 µg/mL; IC50 (MDA435): 47 µg/mL; IC50 (SKBR3; 48 hours exposure): 41 µg/mL; IC50 (SW620; 48 hours exposure): 42 µg/mL
			CC#CC(=O)Nc1cnc2ncc(C#N)c(Nc3cccc(Br)c3)c2c1 [Example 24, But-2-ynoic acid [5-(3-bromo-phenylamino)-6-cyano-[1.8]-naphthyridin-3-yl]-amide]	100	30	> 100000	
			Cc1ccc(Nc2c(C#N)cnc3ccc(OCCCN4CCOCC4)nc23)cc1O [Example 43, 4-(3-Hydroxy-4-methyl-phenylamino)-6-(3-morpholin-4-yl-propoxy)-[1.5]naphthyridine-3-carbonitrile]	1000	> 2300	> 100000	inhibition at 0.5 µM [1, 5]: 37.1%
			N#Cc1cnc2ccc(OCCCN3CCOCC3)nc2c1Nc1cccc(Br)c1 [Example 44, 4-(3-Bromo-phenylamino)-6-(3-morpholin-4-yl-propoxy)-[1.5]naphthyridine-3-carbonitrile]	1000	> 2100	> 100000	inhibition at 0.5 µM [1, 5]: 25.4%
0.088 (≈ 0.195 µM)	0.0357 (≈ 0.079 µM)	0.356 (≈ 0.789 µM)	CN(C)CC=CC(=O)Nc1cc2c(Nc3cccc(Br)c3)c(C#N)cnc2cn1 [Example 62, 4-Dimethylamino-but-2-enoic acid, [4-(3-bromo-phenylamino)-3-cyano-[1.7]naphthyridin-6-yl]-amide]				IC50 [1]: 5 nM; inhibition at 0.5 µM ([1]; read-out: % Inhibition @ 0.5 (µM)): 97.4%; IC50 (MDA435; [7]): 0.464 µg/mL (≈ 1.03 µM); IC50 (3T3): 0.2716 µg/mL (≈ 0.602 µM); IC50 (3T3; Mus musculus, NIH3T3, 48 h, read-out: IC50): 0.373 µg/mL (≈ 0.826 µM)
0.5 (≈ 1.1 µM)	0.4 (≈ 0.882 µM)	41 (≈ 90.4 µM)	N#Cc1cnc2cnc(NCCN3CCOCC3)cc2c1Nc1cccc(Br)c1 [Example 63, 4-(3-Bromo-phenylamino)-6-(2-morpholino-4-yl-ethylamino)-[1.7]naphthyridine-3-carbonitrile]	1000			IC50 (A2780DDP; [10]): 0.8 µg/mL (≈ 1.76 µM); IC50 (A2780S; [10]): 0.5 µg/mL (≈ 1.1 µM); IC50 (LOX; Homo sapiens, read-out: IC50): 57 µg/mL (≈ 126 µM); IC50 (MDA435; [7]): 49 µg/mL (≈ 108 µM)
0.31 (≈ 0.875 µM)	1.88 (≈ 5.3 µM)	4.62 (≈ 13 µM)	CNc1cc2c(Nc3cccc(Br)c3)c(C#N)cnc2cn1 [Example 64, 4-(3-Bromo-phenylamino)-6-methylamino-[1.7]naphthyridine-3-carbonitrile]	6			IC50 (A431): 0.209 µg/mL (≈ 0.59 µM); IC50 (LOX; Homo sapiens, read-out: IC50): 3.6 µg/mL (≈ 10.2 µM); IC50 (MCF7): 3.87 µg/mL (≈ 10.9 µM)
			N#Cc1cnc2cnc(F)cc2c1Nc1ccc(F)c(Cl)c1 [Example 69, 4-(3-Chloro-4-fluoro-phenylamino)-6-fluoro-[1.7]naphthyridine-3-carbonitrile]		> 3100		
